From PubChem BioAssay AID330 (DTP/NCI, 2004)
“And” between values parts separate entries of the source, which are not always exact repeats. Identical values can stand only once. Toxic doses and inconclusive results are not listed. Rule for the calls: active = survival T/C of 150% or more; inactive = T/C below 125% in these data. Square brackets hold non-standard residues; d marks the D form. Peptide text beside a SMILES is read from it. * marks the point of attachment. Cbz = O=C(OCc1ccccc1)*; Nva = CCC[CH](N)C(=O)O

Tested on: P388 leukemia ip, CD2F1 mice, survival T/C
Assay: NCI In Vivo Anticancer Drug Screen. Data for tumor model P388 Leukemia (intraperitoneal) in CD2F1 (CDF1) mice
Settings: endpoint: median survival time, higher = longer survival
How it was run: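 Mice carrying the transplanted tumor received test compound or vehicle. Survival was recorded in each group, and the value is the treated-group measurement divided by that of the vehicle-treated control group.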

[1] = dose: 25.0 mg/kg/injection, schedule: Q01DX005 (ip), vehicle: Klucel (hydroxypropylcellulose) (HPC)
[2] = dose: 50.0 mg/kg/injection, schedule: Q01DX005 (ip), vehicle: Klucel (hydroxypropylcellulose) (HPC)
[3] = dose: 100.0 mg/kg/injection, schedule: Q01DX005 (ip), vehicle: Klucel (hydroxypropylcellulose) (HPC)
[4] = dose: 200.0 mg/kg/injection, schedule: Q01DX005 (ip), vehicle: Klucel (hydroxypropylcellulose) (HPC)
[5] = dose: 100.0 mg/kg/injection, schedule: Q04DX003 (ip), vehicle: Klucel (hydroxypropylcellulose) (HPC)
[6] = dose: 200.0 mg/kg/injection, schedule: Q04DX003 (ip), vehicle: Klucel (hydroxypropylcellulose) (HPC)
[7] = dose: 50.0 mg/kg/injection, schedule: Q01DX009 (ip), vehicle: saline with Tween-80
[8] = dose: 100.0 mg/kg/injection, schedule: Q01DX009 (ip), vehicle: saline with Tween-80
[9] = dose: 200.0 mg/kg/injection, schedule: Q01DX009 (ip), vehicle: saline with Tween-80
[10] = dose: 50.0 mg/kg/injection, schedule: Q04DX003 (ip), vehicle: saline with Tween-80
[11] = dose: 100.0 mg/kg/injection, schedule: Q04DX003 (ip), vehicle: saline with Tween-80
[12] = dose: 50.0 mg/kg/injection, schedule: Q01DX005 (ip), vehicle: saline with Tween-80
[13] = dose: 100.0 mg/kg/injection, schedule: Q01DX005 (ip), vehicle: saline with Tween-80
[14] = dose: 200.0 mg/kg/injection, schedule: Q01DX005 (ip), vehicle: saline with Tween-80
[15] = dose: 25.0 mg/kg/injection, schedule: Q01DX009 (ip), vehicle: saline with Tween-80
[16] = dose: 60.0 mg/kg/injection, schedule: Q01DX005 (ip), vehicle: saline with Tween-80
[17] = dose: 120.0 mg/kg/injection, schedule: Q01DX005 (ip), vehicle: saline with Tween-80
[18] = dose: 240.0 mg/kg/injection, schedule: Q01DX005 (ip), vehicle: saline with Tween-80

Measured: T/C

CN=C(NCCCOC)c1ccc(NC(=O)c2ccc(C(=O)Nc3ccc(C(=NC)NCCCOC)cc3)cc2)cc1
inactive: dose: 5.0 mg/kg/injection, schedule: Q01DX009 (ip), vehicle: saline 118 % of control | dose: 5.0 mg/kg/injection, schedule: Q04DX003 (ip), vehicle: saline 100 % of control | dose: 10.0 mg/kg/injection, schedule: Q01DX009 (ip), vehicle: saline 122 % of control | dose: 10.0 mg/kg/injection, schedule: Q04DX003 (ip), vehicle: saline 100 % of control | dose: 20.0 mg/kg/injection, schedule: Q01DX009 (ip), vehicle: saline 90 % of control | dose: 20.0 mg/kg/injection, schedule: Q04DX003 (ip), vehicle: saline 95 % of control

CCC1CC(C)C(O)/C=C/C=C/CC(C)OC(=O)CC(O)C(OC)C1OC1OC(C)CC(O)(C(C)=O)C1O (stereo not given)
inactive: [1] 104 % of control | [2] 104 % of control | [3] 102 % of control | [4] 101 % of control

CC(=O)NS(=O)(=O)c1ccc(N=NC2C(=O)N(C(=O)c3ccc(Cl)cc3)N=C2C)cc1 (stereo not given)
inactive: dose: 1.5 mg/kg/injection, schedule: Q01DX001 (ip), vehicle: saline with Tween-80 100 % of control | dose: 3.0 mg/kg/injection, schedule: Q01DX001 (ip), vehicle: saline with Tween-80 104 % of control | dose: 6.0 mg/kg/injection, schedule: Q01DX001 (ip), vehicle: saline with Tween-80 107 % of control | dose: 12.0 mg/kg/injection, schedule: Q01DX001 (ip), vehicle: saline with Tween-80 100 % of control | dose: 12.5 mg/kg/injection, schedule: Q01DX001 (ip), vehicle: saline with Tween-80 94 % of control

COc1ccc(C2=C(Cl)C(=O)N(c3ccccn3)C(=O)C2(Cl)Cl)cc1
inactive: [5] 98 % of control | [6] 106 % of control | dose: 400.0 mg/kg/injection, schedule: Q04DX003 (ip), vehicle: Klucel (hydroxypropylcellulose) (HPC) 100 % of control

Cc1[nH]c2c(ccc3ccccc32)c(=O)c1N=Nc1ccc(C(=N)N)cc1
active: dose: 200.0 mg/kg/injection, schedule: Q01DX005 (ip), vehicle: Klucel + Tween-80 154 % of control | dose: 400.0 mg/kg/injection, schedule: Q01DX005 (ip), vehicle: Klucel + Tween-80 168 % of control
inactive: dose: 50.0 mg/kg/injection, schedule: Q01DX005 (ip), vehicle: Klucel + Tween-80 124 % of control

Cc1cnc2c([N+](=O)[O-])cc(C)c(C)c2c1
inactive: [7] 99 % of control | [8] 99 % of control | [9] 92 % of control

Cc1cc2cc3c(=O)[nH]c(=O)cc-3n(CC(O)C(O)C(O)CO)c2cc1C (stereo not given)
inactive: dose: 12.5 mg/kg/injection, schedule: Q01DX009 (ip), vehicle: other 102 % of control | dose: 25.0 mg/kg/injection, schedule: Q01DX009 (ip), vehicle: other 96 % of control | dose: 50.0 mg/kg/injection, schedule: Q01DX009 (ip), vehicle: other 96 % of control | dose: 100.0 mg/kg/injection, schedule: Q01DX009 (ip), vehicle: other 95 % of control

CN=C(NC)c1ccc(NC(=O)c2ccc(C(=O)Nc3ccc(C(=NC)NC)cc3)c([N+](=O)[O-])c2)cc1
inactive: dose: 1.56 mg/kg/injection, schedule: Q01DX005 (ip), vehicle: Klucel (hydroxypropylcellulose) (HPC) 106 % of control | dose: 3.12 mg/kg/injection, schedule: Q01DX005 (ip), vehicle: Klucel (hydroxypropylcellulose) (HPC) 118 % of control

O=C(OCc1ccccc1)c1ccc(=O)oc1
inactive: [5] 114 % of control | [6] 110 % of control

CCC1=C[C@H]2CN(CCc3c([nH]c4ccccc34)[C@@](C(=O)OC)(c3cc4c(cc3OC)N(C)[C@H]3C(C(=O)NC)=C[C@]5(CC)C=CCN6CC[C@]43[C@@H]65)C2)C1
inactive: dose: 1.0 mg/kg/injection, schedule: Q01DX001 (ip), vehicle: other 101 % of control | dose: 2.0 mg/kg/injection, schedule: Q01DX001 (ip), vehicle: other 101 % of control | dose: 4.0 mg/kg/injection, schedule: Q01DX001 (ip), vehicle: other 107 % of control | dose: 8.0 mg/kg/injection, schedule: Q01DX001 (ip), vehicle: other 108 % of control | dose: 16.0 mg/kg/injection, schedule: Q01DX001 (ip), vehicle: other 114 % of control | dose: 32.0 mg/kg/injection, schedule: Q01DX001 (ip), vehicle: other 112 % of control and 123 % of control | dose: 64.0 mg/kg/injection, schedule: Q01DX001 (ip), vehicle: other 119 % of control

O=C1CCCC2CCC(=O)C12 (stereo not given)
inactive: dose: 100.0 mg/kg/injection, schedule: Q04DX003 (ip), vehicle: other 114 % of control | dose: 200.0 mg/kg/injection, schedule: Q04DX003 (ip), vehicle: other 97 % of control | dose: 400.0 mg/kg/injection, schedule: Q04DX003 (ip), vehicle: other 106 % of control

COc1cc(-c2ccc(Nc3ccccc3C(=O)O)c(OC)c2)ccc1N
active: [11] 150 % of control
inactive: [10] 110 % of control | dose: 132.0 mg/kg/injection, schedule: Q04DX003 (ip), vehicle: saline with Tween-80 104 % of control

NNc1nnnn1-c1ccccc1
inactive: dose: 50.0 mg/kg/injection, schedule: Q01DX001 (ip), vehicle: Klucel (hydroxypropylcellulose) (HPC) 100 % of control | dose: 100.0 mg/kg/injection, schedule: Q01DX001 (ip), vehicle: Klucel (hydroxypropylcellulose) (HPC) 104 % of control | dose: 200.0 mg/kg/injection, schedule: Q01DX001 (ip), vehicle: Klucel (hydroxypropylcellulose) (HPC) 102 % of control

CCCC(NC(=O)OCc1ccccc1)C(=O)NC(Cc1ccc(O)cc1)C(N)=O (stereo not given) (Cbz-[Nva]-Tyr-NH2; configuration not given here)
inactive: [2] 92 % of control | [3] 100 % of control | [4] 88 % of control

CC1=Nc2ccccc2OC2(C1)C(C1COC(C)(C)O1)OC1OC(C)(C)OC12 (stereo not given)
inactive: [12] 99 % of control | [13] 95 % of control | [14] 104 % of control

Cc1ccccc1CN1C2=NCCN2C(=O)C2=C1CCN(S(=O)(=O)c1ccc(Cl)c(S(N)(=O)=O)c1)C2
inactive: dose: 50.0 mg/kg/injection, schedule: Q01DX009 (ip), vehicle: saline 96 % of control | dose: 100.0 mg/kg/injection, schedule: Q01DX009 (ip), vehicle: saline 97 % of control | dose: 200.0 mg/kg/injection, schedule: Q01DX009 (ip), vehicle: saline 90 % of control

Oc1ccccc1C=NCc1ccccc1
inactive: [15] 107 % of control | [7] 119 % of control | [8] 114 % of control | [9] 114 % of control

N#CCSCC#N
inactive: [16] 100 % of control | [17] 100 % of control | [18] 104 % of control

C[C@@H](O)c1nc(C(N)=O)cs1
inactive: [16] 104 % of control | [17] 109 % of control | [18] 106 % of control

COc1ccc(S(=O)(=O)N/N=C/c2cccc([N+](=O)[O-])c2O)cc1
inactive: [12] 100 % of control | [13] 100 % of control | [14] 95 % of control

CC(c1ccccc1)n1ccnc1CO (stereo not given)
inactive: [16] 103 % of control | [17] 107 % of control | [18] 110 % of control

CCO/C=N\c1c(NC(N)=O)cnn1Cc1ccccc1
inactive: dose: 100.0 mg/kg/injection, schedule: Q01DX001 (ip), vehicle: saline with Tween-80 96 % of control | dose: 200.0 mg/kg/injection, schedule: Q01DX001 (ip), vehicle: saline with Tween-80 93 % of control | dose: 400.0 mg/kg/injection, schedule: Q01DX001 (ip), vehicle: saline with Tween-80 98 % of control

CCCNCC(O)c1cc(C(F)(F)F)nc2c(C(F)(F)F)cccc12 (stereo not given)
inactive: dose: 12.5 mg/kg/injection, schedule: Q01DX009 (ip), vehicle: saline with Tween-80 99 % of control | [15] 95 % of control | [7] 107 % of control

CN(C)C(=O)Nc1cccc(OC(=O)Nc2ccccc2)c1
inactive: dose: 25.0 mg/kg/injection, schedule: Q04DX003 (ip), vehicle: saline with Tween-80 101 % of control | [10] 101 % of control | [11] 90 % of control

CCc1nc(N)nc(N)c1-c1ccc(NCCCN)c(N)c1
inactive: dose: 12.5 mg/kg/injection, schedule: Q01DX005 (ip), vehicle: Klucel (hydroxypropylcellulose) (HPC) 101 % of control | [1] 106 % of control | [2] 110 % of control and 97 % of control
